Assay results from ChEMBL document CHEMBL6096661, “Synthesis, biological evaluation and mechanism study of a novel indole-pyridine chalcone derivative as antiproliferative agent against tumor cells through dual targeting tubulin and HK2” (Eur J Med Chem, 2025).
The source made the active and inactive calls. No cut-off for these calls is given here.

Tests used:
SW480 = assay: Antiproliferative activity against human SW480 cells assessed as inhibition of cell growth incubated for 48 hrs by CCK-8 assay; format: functional, cell-based; details: SW480, 48 h
BXPC-3 = assay: Antiproliferative activity against human BXPC-3 cells assessed as inhibition of cell growth incubated for 48 hrs by CCK-8 assay; format: functional, cell-based; details: BXPC-3, 48 h
[1] = target: T1, Hexokinase-2 (Homo sapiens) (UniProt P52789); assay: Mixed inhibition of human HK2 transfected in Escherichia coli BL21 (DE) assessed as increase in Km with decrease in Vmax at 0.25 to 4 uM using glucose as substrate by Lineweaver-Burk plot analysis; details: dose 0.25-4 µM
T1 sequence (whole entry): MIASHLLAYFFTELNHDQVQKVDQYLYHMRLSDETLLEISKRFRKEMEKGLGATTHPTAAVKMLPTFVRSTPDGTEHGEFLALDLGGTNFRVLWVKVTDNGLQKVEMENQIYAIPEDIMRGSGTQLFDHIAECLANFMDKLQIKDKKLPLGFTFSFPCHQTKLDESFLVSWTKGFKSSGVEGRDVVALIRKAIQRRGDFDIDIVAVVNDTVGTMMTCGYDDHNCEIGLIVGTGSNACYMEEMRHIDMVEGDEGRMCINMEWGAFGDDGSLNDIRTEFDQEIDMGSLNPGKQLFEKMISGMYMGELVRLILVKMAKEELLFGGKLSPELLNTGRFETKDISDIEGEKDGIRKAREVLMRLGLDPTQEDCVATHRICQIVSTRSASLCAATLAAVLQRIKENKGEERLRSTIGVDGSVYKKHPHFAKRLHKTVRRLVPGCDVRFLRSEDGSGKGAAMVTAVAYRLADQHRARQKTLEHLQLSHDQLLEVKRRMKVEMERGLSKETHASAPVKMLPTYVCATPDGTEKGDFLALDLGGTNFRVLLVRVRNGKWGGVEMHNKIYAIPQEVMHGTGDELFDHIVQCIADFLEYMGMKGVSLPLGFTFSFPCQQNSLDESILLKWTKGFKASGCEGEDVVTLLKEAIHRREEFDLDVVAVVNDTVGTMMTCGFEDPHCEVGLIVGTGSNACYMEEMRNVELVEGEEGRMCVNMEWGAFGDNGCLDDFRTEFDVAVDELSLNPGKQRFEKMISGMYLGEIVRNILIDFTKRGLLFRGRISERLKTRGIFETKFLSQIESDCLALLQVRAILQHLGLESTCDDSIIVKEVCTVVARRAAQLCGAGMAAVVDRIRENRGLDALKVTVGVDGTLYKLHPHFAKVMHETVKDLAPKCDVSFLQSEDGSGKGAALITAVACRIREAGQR

MDA-MB-231 [2] = assay: Induction of morphological changes in human MDA-MB-231 assessed as loss of adhesion properties at 0.5 to 2 uM incubated for 48 hrs by microscopic analysis; format: functional, cell-based; details: dose 0.5-2 µM
HCT-116 [3] = assay: Antiproliferative activity against human HCT-116 cells assessed as inhibition of cell proliferation incubated for 1 day by CCK-8 assay; format: functional, cell-based; details: HCT-116, 24 h
LoVo [4] = assay: Antiproliferative activity against human LoVo cells assessed as inhibition of cell proliferation incubated for 1 day by CCK-8 assay; format: functional, cell-based; details: 24 h
[5] = Selectivity ratio of IC50 for cytotoxicity against green monkey Vero cells to IC50 for antiproliferative activity against human LoVo cells; format: toxicity, cell-based; details: Vero cells versus LoVo cells, read-out: Ratio IC50
MDA-MB-231 [6] = assay: Induction of cell cycle arrest in human MDA-MB-231 cells assessed as increased proportion of cells at S phase at 0.5 to 2 uM by flow cytometric analysis; format: functional, cell-based; details: dose 0.5-2 µM
MDA-MB-231 [7] = assay: Induction of ROS generation in human MDA-MB-231 cells assessed as increase in green fluorescence at 0.5 uM incubated for 24 hrs by DCFH-DA staining based flow cytometric analysis (reference value: 62.3 %); format: functional
MDA-MB-231 [8] = assay: Induction of ROS generation in human MDA-MB-231 cells assessed as increase in green fluorescence at 1 uM incubated for 24 hrs by DCFH-DA staining based flow cytometric analysis (reference value: 62.3 %); format: functional
HT-1080 = assay: Antiproliferative activity against human HT-1080 cells assessed as inhibition of cell growth incubated for 48 hrs by CCK-8 assay; format: functional, cell-based; details: HT-1080, 48 h
MDA-MB-231 [9] = assay: Induction of apoptosis in human MDA-MB-231 cells assessed as decrease in HIF-1a level by Western blotting analysis; format: functional, cell-based; details: dose 0.5-2 µM
MDA-MB-231 [10] = assay: Induction of morphological changes in human MDA-MB-231 assessed as cell contraction at 0.5 to 2 uM incubated for 48 hrs by microscopic analysis; format: functional, cell-based; details: dose 0.5-2 µM
MDA-MB-231 [11] = assay: Induction of apoptosis in human MDA-MB-231 cells assessed as upregulation of Bax level by Western blotting analysis; format: functional, cell-based; details: dose 0.5-2 µM
Mitochondrial membrane [12] = assay: […] in human MDA-MB-231 cells at 0.5 uM by JC-1 fluorescent probe based flow cytometric analysis (reference value: 2.56 %)
Mitochondrial membrane [13] = assay: […] in human MDA-MB-231 cells at 2.0 uM by JC-1 fluorescent probe based flow cytometric analysis (reference value: 2.56 %)
[14] = target: T1, Hexokinase-2 (Homo sapiens); assay: Non-competitive inhibition of human HK2 transfected in Escherichia coli BL21 (DE) assessed as constant Km with decrease in Vmax at 0.25 to 4 uM using ATP as substrate by Lineweaver-Burk plot analysis; details: dose 0.25-4 µM
MDA-MB-231 [15] = assay: Antiproliferative activity against human MDA-MB-231 cells assessed as inhibition of cell proliferation incubated for 4 days by CCK-8 assay; format: functional, cell-based; details: MDA-MB-231, 96 h
HCT-116 [16] = assay: Antiproliferative activity against human HCT-116 cells assessed as inhibition of cell growth incubated for 48 hrs by CCK-8 assay; format: functional, cell-based; details: HCT-116, 48 h
HCT-116 [17] = assay: Antiproliferative activity against human HCT-116 cells assessed as inhibition of cell proliferation incubated for 3 days by CCK-8 assay; format: functional, cell-based; details: HCT-116, 72 h
HCT-116 [18] = assay: Antiproliferative activity against human HCT-116 cells assessed as inhibition of cell proliferation incubated for 4 days by CCK-8 assay; format: functional, cell-based; details: HCT-116, 96 h
MDA-MB-231 [19] = assay: Inhibition of colony formation in human MDA-MB-231 cells assessed as reduction in number of colonies at 1 uM incubated for 8 days by crystal violet staining based assay; format: functional, cell-based; details: time 8.0 day
MDA-MB-231 [20] = assay: Induction of apoptosis in human MDA-MB-231 cells assessed as pyknotic bright nuclei at 0.5 to 2 uM incubated for 24 hrs by Hoechst 33342 staining based fluorescence microscopic analysis; format: functional, cell-based; details: dose 0.5-2 µM
LoVo [21] = assay: Antiproliferative activity against human LoVo cells assessed as inhibition of cell proliferation incubated for 4 days by CCK-8 assay; format: functional, cell-based; details: 96 h
SW1990 = assay: Antiproliferative activity against human SW1990 cells assessed as inhibition of cell growth incubated for 48 hrs by CCK-8 assay; format: functional, cell-based; details: SW1990, 48 h
MDA-MB-231 [22] = assay: Antiproliferative activity against human MDA-MB-231 cells assessed as inhibition of cell proliferation incubated for 3 days by CCK-8 assay; format: functional, cell-based; details: MDA-MB-231, 72 h
MDA-MB-231 [23] = assay: Induction of apoptosis in human MDA-MB-231 cells assessed as decrease in Cyclin A level by Western blotting analysis; format: functional, cell-based; details: dose 0.5-2 µM

Question: Which IC50 (SW480) does the source give for O=C(/C=C/c1cn(S(=O)(=O)c2ccc([N+](=O)[O-])cc2)c2ccc(N3CCOCC3)cc12)c1cccnc1 here?
Answer: 0.687 µM

Question: What about the IC50 (BXPC-3) of the same compound?
Answer: 1.27 µM

Question: And the inhibition [1]?
Answer: Active

Question: And the Activity (MDA-MB-231 [2])?
Answer: Active

Question: And the IC50 (HCT-116 [3])?
Answer: 1.93 µM

Question: What about the IC50 (LoVo [4]) of the same compound?
Answer: 1.17 µM

Question: What about the selectivity ratio [5] of the same compound?
Answer: 5

Question: And the Activity (MDA-MB-231 [6])?
Answer: Active

Question: What about the Activity (MDA-MB-231 [7]) of the same compound?
Answer: 88.4%

Question: And the Activity (MDA-MB-231 [8])?
Answer: 90.4%

Question: What about the IC50 (HT-1080) of the same compound?
Answer: 0.872 µM

Question: What about the Activity (MDA-MB-231 [9]) of the same compound?
Answer: Dose-dependent-effect

Question: What about the Activity (MDA-MB-231 [10]) of the same compound?
Answer: Active

Question: And the Activity (MDA-MB-231 [11])?
Answer: Dose-dependent-effect

Question: And the Activity (Mitochondrial membrane [12])?
Answer: 5.5%

Question: And the Activity (Mitochondrial membrane [13])?
Answer: 32.3%

Question: What about the inhibition [14] of the same compound?
Answer: Active

Question: And the IC50 (MDA-MB-231 [15])?
Answer: 0.938 µM

Question: And the IC50 (HCT-116 [16])?
Answer: 0.512 µM

Question: What about the IC50 (HCT-116 [17]) of the same compound?
Answer: 0.393 µM

Question: What about the IC50 (HCT-116 [18]) of the same compound?
Answer: 0.299 µM

Question: What about the inhibition (MDA-MB-231 [19]) of the same compound?
Answer: Active

Question: And the Activity (MDA-MB-231 [20])?
Answer: Active

Question: What about the IC50 (LoVo [21]) of the same compound?
Answer: 0.629 µM

Question: What about the IC50 (SW1990) of the same compound?
Answer: 0.927 µM

Question: What about the IC50 (MDA-MB-231 [22]) of the same compound?
Answer: 0.561 µM

Question: What about the Activity (MDA-MB-231 [23]) of the same compound?
Answer: Dose-dependent-effect
